Read-outs that look alike come from different tables or passages of the source.
How the values were obtained:
lymphocytes = test: Proliferation assay (BrdU incorporation, phytohemagglutanin-stimulated lymphocytes); format: cell-based, mammalian; conditions: for IC50: Lymphocyte; for Ratio (2 h:72 h): ratio of IC50 at 2 h to IC50 at 72 h, lower = better uptake and drug release
Description: Assay to determine the in vitro rate of, for example, lymphocyte proliferation. Lymphocytes are purified out of ant coagulated (CPDA, citrate or heparin) mammalian blood using the Lymphoprep™ system (supplier). Purified cells are counted using a hemocytometer following Trypan Blue staining, and a cell concentration of 1×10^6 cells/ml established in RPMi 1640 medium with 10% FCS and antibiotics as required (all from Biochrome). Following the addition of a cell proliferation stimulant, for example phytohemagglutanin (Sigma) at, for example an end concentration of 5 μg/ml, the cells are incubated with different concentrations of the to be investigated compound in 100 μl end volume in a 96-well microtiter plate in an incubator (37° C., 5% CO2, 95% humidity) for 72 h. Cell proliferation is quantified following BrdU incorporation for 16 h by ELISA and subsequent colorimetric development (Cell Proliferation ELISA BrdU (colorimetric) kit from Roche Diagnostics). The IC50 (μM) values are then calculated, and used to compare compound efficacy. To determine the influence of the T-L-C modification on in vitro cellular drug uptake and pharmacology, the above assay is additionally modified and an additional “wash” step included. In addition to running the assay for 72 h with the compounds to be tested, the assay is also run for just 2 h, then compound is washed away in three serial washing steps using 200 μl of medium at each step, and the cells subsequently incubated for a further 70 h. […] The lower the number, the better the uptake and drug release from the T-L-C in the cells (see results in Table 4 for examples), and improvement over mycophenolic acid.

E. coli (DH5α) = test: Testing of antibiotic activity (TC50, antibiotic dilution assay, turbidity); format: cell-based; conditions: concentration that inhibits 50% of the growth
Experimental: The TC50 or MIC procedure for antibiotic sensitivity testing involves an antibiotic dilution assay, which can be performed in microtitre plates. A series of twofold dilutions of each antibiotic are made in the wells, and then all wells are inoculated with a standard amount of the same test organism. After incubation, growth in the presence of the various antibiotics is observed by measuring turbidity.
Bacteria: B. pumilus and E. coli (DH5α)
Bacterial cultures are initiated from the plates for 2 to 3 weeks. After this time period bacteria are streaked out on new plates from the backups strored at −80° C. Due to the lack of resistance of the bacteria, new cultures are not to be initiated from an old plate or any liquid cultures derived from old plates. • Growth medium (GM)(per liter): 10 g Bacto-tryptone, 5 g Bacto-yeast extract, 6 g HEPES (25 mM), 5.4 g NaCl, pH 7.3 • Compound stocks 10 or 100 mM in DMSO stored at −20° C. Procedure • 1. Grow B. pumilus from an LB agar plate in a flask (max. 10% volume) up to about 50 ml in growth medium (GM) • 2. Dilute overnight suspension 1:10 in GM • 3. Determine OD600 of diluted bacterial suspension • 4. Dilute bacterial suspension in GM to an OD600 of 0.03-0.04. (6 ml/plate) • 5. Add 200 μl GM to the outer wells (Row A, Row H, Column 1, Column 12) • 6. Add 100 μl GM to each well starting from C2, row 3. • 7. Controls: Wells B2-B4 growth control. Wells B6-B8 blank. Row C growth inhibition control. • 7.1. To wells B2-B4 add: […], 4 μl DMSO, and 100 μl bacterial suspension adjusted to an OD600 of 0.03-0.04. • 7.2. To wells B6-B8 add: 196 μl GM and 4 μl DMSO • 7.3. Dilute a 10 mM COMPOUND 43 (positive control) stock to 800 μM (120 μl/plate) in GM. Add 100 μl of 800 μM COMPOUND 43 solution to well C2. • 8. Samples • 8.1. Dilute the 10 or 100 mM stock solutions to 800 μM (250 μl/plate) in GM. • 8.2. Add 100 μl of 800 μM sample in duplicates to wells D2/E2 resp. F2/G2. • 8.3. 2-fold serial dilution of all samples and Azithromycin • 8.3.1. […]
11. Determine OD600 on plate reader.

HeLa or JURKAT = test: Cytotoxicity assay (Alamar Blue) with guanosine rescue, cell-based IMPDH assay
Experimental: HeLa cells (DSMZ, ACC 57) and Jurkat cells (DSMZ, ACC 282) in exponential growth phase are exposed for 3 days to test compounds. The number of surviving cells is then determined by the Alamar Blue assay (Serotec Inc.). This assay incorporates a fluorometric growth indicator based on detection of metabolic activity. Specifically, the system incorporates an oxidation-reduction indicator that fluoresces in response to chemical reduction of the growth medium resulting from cell growth. As cells grow in culture, innate metabolic activity results in a chemical reduction of the immediate surrounding environment. Continued growth maintains a reduced environment while inhibition of growth maintains an oxidized environment. […] Fluorescence is monitored at 560 nm (Exc.) and 590 nm Em.
HeLa cells (1×10^3) or JURKAT cells (1×10^3) are plated in 100 μl MEM medium (with Earle's salt; Biochrom KG) containing 10% FBS, 2 mM L-glutamine, and non-essential animo acids in 96-well plates and incubated at 37° C. and 5% CO2 atmosphere. […] The fluorescence is then measured as described above and the LD50 is determined based on a sigmoidal dose response regression. […] Any toxicity still detected can then be ascribed either to other biological effects of the of T-L-C conjugate of mycophenolic acid, or is due to the very high intracellular concentration of mycophenolic acid, following concentrative uptake into the cell.

[1] = system: white blood cells (immune cells: neutrophils, monocytes, lymphocytes) versus erythrocytes; test: Immune cell partition / concentrative uptake into white blood cells (immune selectivity ratio); format: in vitro ADME, mammalian
Experimental: Freshly drawn heparinised blood or buffy coat preparations are used for the determination of immune cell partition ratios. Buffy coat preparations are preferred. These may be obtained from donor blood by simple centrifugation of whole blood (4795 g for 10 minutes). Following centrifugation, plasma is collected from the surface, after which immune cells are expressed from the donor bags along with the erythrocytes lying immediately below the leukocyte layer. This ensures high yields and a sufficient population of erythrocytes for partition. 5 ml of the resulting cell suspension are dispensed into T25 culture flasks. Substrates are added to a final concentration between 1 and 10 μM and the suspensions incubated at 37° C., in a 5% CO2 atmosphere. For analysis of uptake kinetics, samples are withdrawn at 0, 2, 5, 10, 30, 60, 90, 180, or 240 min after substrate addition. For screening purposes, samples are taken at 0 and 120 minutes.
Cell fractions were prepared using density gradient centrifugation. […]
Uptake of fluorescent compounds is monitored using fluorescence microscopy. Excitation and emission wavelengths depend of the fluorescence label in use. […]

[2] = read-out: IC50 (μM) at 2 h, 2 h incubation, compound washed away, further 70 h incubation
[3] = 72 h incubation with compound, read-out: IC50 (μM) at 72 h

SMILES	IC50 (lymphocytes; [2]) [µM]	IC50 (lymphocytes; [3]) [µM]	Ratio (2 h:72 h) (lymphocytes)	also measured
CC[C@H]1OC(=O)[C@H](C)[C@@H](O)[C@H](C)[C@@H](O[C@@H]2O[C@H](C)C[C@@H](N(C)CCOC(=O)CC/C(C)=C/Cc3c(O)c4c(c(C)c3OC)COC4=O)[C@@H]2N(C)C)[C@](C)(O)C[C@@H](C)CN(C)[C@H](C)[C@@H](O)[C@]1(C)O [Compound 74]	3.2	2.2	1.45	–
CC[C@H]1OC(=O)[C@H](C)[C@@H](O[C@H]2C[C@@](C)(OC)[C@@H](O)[C@H](C)O2)[C@H](C)[C@@H](O[C@@H]2O[C@H](C)CC(N(C)C(=O)CN(C)CCO)[C@H]2O)[C@](C)(O)C[C@@H](C)CN(C)[C@H](C)[C@@H](O)[C@]1(C)O (stereo partly shown) [Compound 45]	–	–	–	TC50 in E. coli (E. coli (DH5α)): >50000 nM
CC[C@H]1OC(=O)[C@H](C)[C@@H](O[C@H]2C[C@@](C)(OC)[C@@H](O)[C@H](C)O2)[C@H](C)[C@@H](O[C@@H]2O[C@H](C)C[C@@H](OC(=O)CC/C(C)=C/Cc3c(O)c4c(c(C)c3OC)COC4=O)[C@@H]2N2CCOCC2)[C@](C)(O)C[C@@H](C)CN(C)[C@H](C)[C@@H](O)[C@]1(C)O [Compound 80]	1.41	0.4	3.53	–
COc1c(C)c2c(c(O)c1C/C=C(\C)CCC(=O)O)C(=O)OC2 [Mycophenolic acid, reference compound]	2.5	0.54	4.63	effect in the presence of guanosine (HeLa or JURKAT; 50 μM guanosine): completely removed; IC50 (HeLa or JURKAT; normal culture conditions, HeLa or JURKAT): < 2000 nM
CC[C@H]1OC(=O)[C@H](C)[C@@H](O[C@H]2C[C@@](C)(OC)[C@@H](O)[C@H](C)O2)[C@H](C)[C@@H](O[C@@H]2O[C@H](C)C[C@H](N(C)C)[C@H]2O)[C@](C)(O)C[C@@H](C)CN(C)[C@H](C)[C@@H](O)[C@]1(C)O [Compound 43, 9a-aza-9a-methyl-9-deoxo-9a-homoerythromycin A, reference compound]	–	–	–	TC50 in E. coli (E. coli (DH5α)): 2300 nM
CC[C@H]1OC(=O)[C@H](C)C(=O)[C@H](C)[C@@H](O[C@@H]2O[C@H](C)CC(N(C)C)[C@H]2O)[C@](C)(O)C[C@@H](C)CN(C)[C@H](C)[C@@H](O)[C@]1(C)O (stereo partly shown) [Compound 40]	–	–	–	TC50 in E. coli (E. coli (DH5α)): >50000 nM
CC[C@H]1OC(=O)[C@H](C)C(=O)[C@H](C)[C@@H](O[C@@H]2O[C@H](C)C[C@H](N(C)C)[C@H]2OC(=O)CC/C(C)=C/Cc2c(O)c3c(c(C)c2OC)COC3=O)[C@](C)(O)C[C@@H](C)CN(C)[C@H](C)[C@@H](O)[C@]1(C)O [Compound 79]	3.16	1.2	2.63	–
CCOC(=O)CC/C(C)=C/Cc1c(OC)c(C)c2c(c1OC(=O)CCC(=O)O[C@@H]1C(N(C)C)C[C@@H](C)O[C@H]1O[C@@H]1[C@@H](C)[C@H](O[C@H]3C[C@@](C)(OC)[C@@H](O)[C@H](C)O3)[C@@H](C)C(=O)O[C@H](CC)[C@@](C)(O)[C@H](O)[C@@H](C)N(C)C[C@H](C)C[C@@]1(C)O)C(=O)OC2 (stereo partly shown) [Compound 69]	2.66	1.4	1.9	–
CC[C@H]1OC(=O)[C@H](C)[C@@H](OC2C[C@@](C)(OC)[C@@H](O)[C@H](C)O2)[C@H](C)[C@@H](OC2O[C@H](C)C[C@H](N(C)C)[C@H]2O)[C@](C)(O)C[C@@H](C)/C(=N/OCc2cc(=O)oc3cc(OC)c(OC)cc23)[C@H](C)[C@@H](O)[C@]1(C)O (stereo partly shown) [Compound 3]	–	–	–	intracellular distribution ([1]; polymorphonuclear cells, fluorescent image (FIG. 3)): even distribution with some concentration near the nucleus
COc1c(C)c2c(c(O)c1C/C=C(\C)CCC(=O)OCCN1CCOCC1)C(=O)OC2 [Mycophenolate mofetil, reference compound]	1.5	0.33	4.5	–
COc1c(C)c2c(c(O)c1C/C=C(\C)CCC(=O)OC(COCCCCOCC(CN1CCOCC1)OC(=O)CC/C(C)=C/Cc1c(O)c3c(c(C)c1OC)COC3=O)CN1CCOCC1)C(=O)OC2 (stereo not shown) [Compound 81]	1.78	1.12	1.6	–
COc1cc(C)c(/C(=C\C(C)=O)CC(N)C(=O)O)cc1OC (stereo not shown) [Compound 4]	–	–	–	uptake (speed) ([1]; uptake into immune cells, images during course of uptake): rapid

— patent publication US20050171342A1, “Conjugates of biologically active compounds, methods for their preparation and use, formulation and pharmaceutical applications thereof” (priority 2002, published 2005)
